Results from patent publication US20060287360A1, “Novel compounds” (REPLIDYNE, INC., priority 2003, published 2006).

Assays:
[1] = target: T1, S. aureus MRS (Staphylococcus aureus, UniProt Q5HII6); assay: Enzyme inhibition (S. aureus MRS), aminoacylation assay; assay type: biochemical
T1 construct: made in house
Protocol: 1. Enzyme Inhibition (S. aureus MRS)—Aminoacylation Assay
Compounds of the present invention may be assayed for their ability to inhibit the enzyme methionyl tRNA synthetase (MRS), using recombinant S. aureus MRS, as follows:
The reaction is started by adding 20 μl appropriately diluted pure enzyme (pre-incubated with inhibitor) to 25 μl reaction mix for 10 min at room temperature. The reaction is terminated by the addition of 100 μl 5% trichloroacetic acid, 10% glycerol. The TCA precipitate is harvested onto dry Unifilter GFC plates using a Packard Filtermate Cell Harvester. The filters are washed with 4×200 μl of 50% industrial methylated spirit, before drying. 30 μl of Microscint 20 is added to each well and plates are counted on a TopCount. (Packard 96 well counter).
Mixed E. coli MRE 600 tRNA and ATP were purchased from Boehringer-Mannheim, L-[^35 S] methionine from Amersham and other reagents from Sigma.
Pure recombinant S. aureus MRS (EP application number 97300317.1, SmithKline Beecham) was obtained using standard purification procedures. The enzyme is diluted in Dilution Buffer which consists of 10 mM Tris/Cl, 2 mM DTT pH 7.9.

[2] = test system: S. aureus; assay: Antibacterial activity, standard MIC assay modified by inclusion of cyclodextrin; assay type: cell-based; details: Staphylococcus aureus; some strains of S. aureus
Protocol: (§1) Compounds of the present invention were assayed for antibacterial activity against a range of pathogenic organisms (strains of S aureus, Spneumoniae, Efaecalis, H influenzae and M catarrhalis) in a standard MIC assay modified by the inclusion of cyclodextrin, to assist with solubility.

[3] = test system: E. faecalis; assay: as above; assay type: cell-based; details: Enterococcus faecalis; some strains of E. faecalis
Protocol: as §1

[4] = test system: S. pneumoniae; assay: as above; assay type: cell-based; details: Streptococcus pneumoniae; some strains of S. pneumoniae
Protocol: as §1

[5] = test system: M Catarrhalis; assay: as above; assay type: cell-based; details: some strains of M Catarrhalis
Protocol: as §1

[6] = test system: H. influenzae; assay: as above; assay type: cell-based
Protocol: as §1

T1 sequence (Q5HII6 whole entry): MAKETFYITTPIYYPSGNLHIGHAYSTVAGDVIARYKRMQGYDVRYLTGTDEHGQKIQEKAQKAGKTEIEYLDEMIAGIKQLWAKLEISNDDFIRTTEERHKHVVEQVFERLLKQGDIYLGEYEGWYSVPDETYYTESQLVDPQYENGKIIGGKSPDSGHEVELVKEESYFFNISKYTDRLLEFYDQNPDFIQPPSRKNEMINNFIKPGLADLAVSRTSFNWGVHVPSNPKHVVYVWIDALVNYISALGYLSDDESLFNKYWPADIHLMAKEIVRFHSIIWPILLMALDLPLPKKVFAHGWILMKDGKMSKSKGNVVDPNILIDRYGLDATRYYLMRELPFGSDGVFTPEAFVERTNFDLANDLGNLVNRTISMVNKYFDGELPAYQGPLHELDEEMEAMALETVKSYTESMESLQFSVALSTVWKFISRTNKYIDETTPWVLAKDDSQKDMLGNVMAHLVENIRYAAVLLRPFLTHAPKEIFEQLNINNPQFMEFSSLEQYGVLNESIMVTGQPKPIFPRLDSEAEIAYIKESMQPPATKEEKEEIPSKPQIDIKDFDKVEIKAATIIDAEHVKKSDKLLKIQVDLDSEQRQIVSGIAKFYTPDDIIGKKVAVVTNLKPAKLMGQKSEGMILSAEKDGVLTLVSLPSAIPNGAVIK

Structure (SMILES)	IC50 [1] [nM]	MIC [2] [µg/mL]	MIC [3] [µg/mL]	MIC [4] [µg/mL]	MIC [5] [µg/mL]	antibacterial activity against H. influenzae [6]
COc1cc(CNCCCNc2nn3nccc3[nH]2)c2[nH]cc(Cl)c2c1.Cl.Cl [Example 1, 2-[3-(3-Chloro-5-methoxy-1H-indol-7-ylmethylamino)propylamino]-1H-pyrazolo[1,5-b][1,2,4]triazole dihydrochloride]	< 10	< 32	< 32	< 32	< 32	
Cc1c(CNCCCNc2nn3nccc3[nH]2)sc(Br)c1Br.Cl.Cl [Example 2, 2-[3-(4,5-Dibromo-3-methylthien-2-ylmethylamino)propylamino]-1H-pyrazolo[1,5-b][1,2,4]triazole dihydrochloride]	< 10					active
